Earlier results on one substance are cited in patent US4721704A, “Potent synthetic atrial peptide analogs” (Peninsula Laboratories, Inc., priority 1986, dated 1988).

Ends that are not written are not given here.

For series [1] the following is noted: Atriopeptin III and α-hANP compared with each other.
The next series deals with patients. The settings on record: 400 μg bolus doses.

As to “α-human atrial natriuretic polypeptide (SLRRSSCFGGRMDRIGAQSGLGCNSFRY; ends and bridges not checked; cysteine pairing not given here; UniProt P01160 124-151, looked up) [α-hANP, peptide isolated from human atria]”, the “hypotensive, diuretic and natriuretic activities” value in series [1] was “about comparable”. For the same substance, in the series with patients, the diuretic action entry is recorded as “acting as a diuretic” and the “effect on blood pressure” value is “decreasing blood pressure”.
